From patent publication US20150284394A1, “INHIBITORS OF BRUTON'S TYROSINE KINASE” (HOFFMANN-LA ROCHE INC., priority 2012, published 2015)

How the values were obtained:
Bruton's Tyrosine Kinase = Bruton's Tyrosine Kinase (Homo sapiens, UniProt Q06187); assay: Bruton's Tyrosine Kinase (BTK) Inhibition TR-FRET competition assay; format: binding; settings: inactivated state of BTK; Kinase Tracer 178; 18-24 h at 14° C
Method: This BTK competition assay measures compound potency (IC50) for the inactivated state of Bruton's Tyrosine Kinase using FRET (Forster/Fluorescence Resonance Energy Transfer) technology. The BTK-Eu complex was incubated on ice one hour prior to use at a starting concentration of 50 nM BTK-Bioease™: 10 nM Eu-streptavidin (Perkin-Elmer Catalog# AD0062). The assay buffer consisted of 20 mM HEPES (pH 7.15), 0.1 mM DTT, 10 mM MgCl2, 0.5 mg/ml BSA with 3% Kinase Stabilizer (Fremont Biosolutions, Catalog # STB-K02). After 1 h, the reaction mixture from above was diluted 10 fold in assay buffer to make 5 nM BTK: 1 nM Eu-Streptavidin complex (donor fluorophore). […] of a mixture of 0.11 nM BTK-Eu and 0.11 nM Kinase Tracer 178 (Invitrogen, Catalog # PV5593,) with BTK-Eu alone as no negative control, was then dispensed into 384-well flat bottom plates (Greiner, 784076). Compounds to be tested in assay were prepared as 10× concentrations and serial dilution in half-log increments was performed in DMSO so as to generate 10 point curves. To initiate the FRET reaction, compounds prepared as 10× stock in DMSO was added to the plates and the plates were incubated 18-24 h at 14° C.
After the incubation the plates were read on a BMG Pherastar Fluorescent plate reader (or equivalent) and used to measure the emission energy from the europium donor fluorophore (620 nm emission) and the FRET (665 nm emission). The negative control well values were averaged to obtain the mean minimum. The positive “no inhibitor” control wells were averaged to obtain the mean maximum. Percent of maximal FRET was calculated using following equation:
% max FRET=100×[(FSRcmpd−FSRmean min)/(FSRmean max−FSRmean min)]
where FSR=FRET Signal ratio. % Max FRET curves were plotted in Activity Base (Excel) and the IC50(%), hill slope, z′ and % CV were determined. The mean IC50 and standard deviation will be derived from duplicate curves (singlet inhibition curves from two independent dilutions) using Microsoft Excel.

B cells in human blood = assay: Inhibition of B cell activation in whole blood measured by CD69 expression; format: cell-based; settings: anti-IgM stimulation, 20 hours, CD69-positive cells that are also CD20-positive, read-out: HWB IC50
Method: A procedure to test the ability of Btk inhibitors to suppress B cell receptor-mediated activation of B cells in human blood is as follows:
Human whole blood (HWB) is obtained from healthy volunteers, with the following restrictions: 24 hr drug-free, non-smokers. Blood is collected by venipuncture into Vacutainer tubes anticoagulated with sodium heparin. Test compounds are diluted to ten times the desired starting drug concentration in PBS (20×), followed by three-fold serial dilutions in 10% DMSO in PBS to produce a nine point dose-response curve. 5.5 μl of each compound dilution is added in duplicate to a 2 ml 96-well V bottom plate (Analytical Sales and Services, #59623-23); 5.5 μl of 10% DMSO in PBS is added to control and no-stimulus wells. HWB (100 μl) is added to each well, and after mixing the plates are incubated at 37 C, 5% CO2, 100% humidity for 30 minutes. Goat F(ab′)2 anti-human IgM (Southern Biotech, #2022-14) (10 μl of a 500 μg/ml solution, 50 μg/ml final concentration) is added to each well (except the no-stimulus wells) with mixing and the plates are incubated for an additional 20 hours.
At the end of the 20 hour incubation, samples are incubated with florescent-probe-labeled anti-bodies (15 μl PE Mouse anti-Human CD20, BD Pharmingen, #555623, and/or 20 ul APC Mouse anti-Human CD69, BD Pharmingen #555533) for 30 minutes, at 37 C, 5% CO2, 100% humidity. Included are induced control, unstained and single stains for compensation adjustments and initial voltage settings. Samples are then lysed with 1 ml of 1× Pharmingen Lyse Buffer (BD Pharmingen #555899), and plates are centrifuged at 1800 rpm for 5 minutes. Supernatants are removed via suction and the remaining pellets are lysed again with another 1 ml of 1× Pharmingen Lyse Buffer, and plates are spun down as before. Supernatants are aspirated and remaining pellets are washed in FACs buffer (PBS+1% FBS). After a final spin, the supernantants are removed and pellets are resuspended in 180 μl of FACs buffer. Samples are transferred to a 96 well plate suitable to be run on the HTS 96 well system on the BD LSR II flow cytometer.
Using appropriate excitation and emission wavelengths for the fluorophores used, data are acquired and percent positive cell values are obtained using Cell Quest Software. Results are initially analyzed by FACS analysis software (Flow Jo). […] The IC50 values are calculated using XLfit software version 3, equation 201.

Bruton's Tyrosine Kinase, sequence (Q06187 whole entry): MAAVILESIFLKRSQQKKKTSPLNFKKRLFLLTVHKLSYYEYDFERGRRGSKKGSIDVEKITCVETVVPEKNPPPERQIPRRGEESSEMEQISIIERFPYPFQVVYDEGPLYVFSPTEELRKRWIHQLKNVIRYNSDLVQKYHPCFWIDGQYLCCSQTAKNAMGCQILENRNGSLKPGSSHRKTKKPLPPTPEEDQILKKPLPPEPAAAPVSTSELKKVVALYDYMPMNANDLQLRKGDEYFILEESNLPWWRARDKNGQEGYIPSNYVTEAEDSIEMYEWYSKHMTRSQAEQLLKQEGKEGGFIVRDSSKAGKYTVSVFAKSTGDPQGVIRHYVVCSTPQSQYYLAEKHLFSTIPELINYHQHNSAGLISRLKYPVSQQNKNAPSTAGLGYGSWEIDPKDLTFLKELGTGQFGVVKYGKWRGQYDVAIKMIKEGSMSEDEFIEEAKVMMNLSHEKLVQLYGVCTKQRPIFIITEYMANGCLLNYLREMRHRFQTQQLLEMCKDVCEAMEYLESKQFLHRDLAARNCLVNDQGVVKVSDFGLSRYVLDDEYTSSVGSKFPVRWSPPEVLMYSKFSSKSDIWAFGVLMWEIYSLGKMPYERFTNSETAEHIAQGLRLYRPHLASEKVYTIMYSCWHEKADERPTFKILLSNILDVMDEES

Row | SMILES | IC50 (Bruton's Tyrosine Kinase) | IC50 (B cells in human blood)
1 | Cn1cc(-c2cc3c(-c4ccc(CNC(=O)c5ccc(C6(C)COC6)cc5)c(F)c4)ncnc3[nH]2)cn1 [Compound I-35, N-{2-Fluoro-4-[6-(1-methyl-1H-pyrazol-4-yl)-7H-pyrrolo[2,3-d]pyrimidin-4-yl]-benzyl}-4-(3-methyl-oxetan-3-yl)-benzamide] | 8 nM | 5500 nM
2 | Cn1cc(-c2cc3c(-c4ccc(CNC(=O)c5ccc(C(C)(C)C#N)cc5)c(F)c4)ncnc3[nH]2)cn1 [Compound I-36, 4-(Cyano-dimethyl-methyl)-N-{2-fluoro-4-[6-(1-methyl-1H-pyrazol-4-yl)-7H-pyrrolo[2,3-d]pyrimidin-4-yl]-benzyl}-benzamide] | 4 nM | 6740 nM
3 | Cn1cc(-c2cc3c(-c4ccc(CNC(=O)c5ccc(C(C)(C)O)cc5)c(F)c4)ncnc3[nH]2)cn1 [Compound I-38, N-{2-Fluoro-4-[6-(1-methyl-1H-pyrazol-4-yl)-7H-pyrrolo[2,3-d]pyrimidin-4-yl]-benzyl}-4-(1-hydroxy-1-methyl-ethyl)-benzamide] | 3 nM | 3270 nM
4 | Cn1cc(-c2cc3c(-c4ccc(CNC(=O)N5CC(OC(C)(C)C)C5)c(F)c4)ncnc3[nH]2)cn1 [Compound I-40, 3-tert-Butoxy-azetidine-1-carboxylic acid 2-fluoro-4-[6-(1-methyl-1H-pyrazol-4-yl)-7H-pyrrolo[2,3-d]pyrimidin-4-yl]-benzylamide] | 0.6 nM | 52 nM
5 | CN(C)CCn1cc(-c2cc3c(-c4ccc(CNC(=O)N5CC(OC(C)(C)C)C5)c(F)c4)ncnc3[nH]2)cn1 [Compound I-43, 3-tert-Butoxy-azetidine-1-carboxylic acid 4-{6-[1-(2-dimethylamino-ethyl)-1H-pyrazol-4-yl]-7H-pyrrolo[2,3-d]pyrimidin-4-yl}-2-fluoro-benzylamide] | 0.6 nM | 276 nM
6 | Cn1cc(-c2cc3c(-c4ccc(CNC(=O)c5cc6n(n5)CCCC6)c(F)c4)ncnc3[nH]2)cn1 [Compound I-47, N-(2-fluoro-4-(6-(1-methyl-1H-pyrazol-4-yl)-7H-pyrrolo[2,3-d]pyrimidin-4-yl)benzyl)-4,5,6,7-tetrahydropyrazolo[1,5-a]pyridine-2-carboxamide] | 3.2 nM | 674 nM

Continued by falling IC50 (Bruton's Tyrosine Kinase), values first:

Row | IC50 (Bruton's Tyrosine Kinase) | IC50 (B cells in human blood) | SMILES
7 | 1 nM | > 50000 nM | CC(C)(C)c1ccc(C(=O)NCc2ccc(-c3ncnc4[nH]c(-c5cnn(CC(=O)O)c5)cc34)cc2F)cc1 [Compound I-46, [4-(4-{4-[(4-tert-Butyl-benzoylamino)-methyl]-3-fluoro-phenyl}-7H-pyrrolo[2,3-d]pyrimidin-6-yl)-pyrazol-1-yl]-acetic acid]
8 | 0.6 nM | 154 nM | Cn1cc(-c2cc3c(-c4ccc(CNC(=O)N5Cc6ccccc6C5)c(F)c4)ncnc3[nH]2)cn1 [Compound I-41, 1,3-Dihydro-isoindole-2-carboxylic acid 2-fluoro-4-[6-(1-methyl-1H-pyrazol-4-yl)-7H-pyrrolo[2,3-d]pyrimidin-4-yl]-benzylamide]
9 | 0.6 nM | 222 nM | CCOC(=O)Cn1cc(-c2cc3c(-c4ccc(CNC(=O)c5ccc(C(C)(C)C)cc5)c(F)c4)ncnc3[nH]2)cn1 [Compound I-45, [4-(4-{4-[(4-tert-Butyl-benzoylamino)-methyl]-3-fluoro-phenyl}-7H-pyrrolo[2,3-d]pyrimidin-6-yl)-pyrazol-1-yl]-acetic acid ethyl ester]
10 | 0.52 nM | 188 nM | CN(C)CCn1cc(-c2cc3c(-c4ccc(CNC(=O)N5Cc6ccccc6C5)c(F)c4)ncnc3[nH]2)cn1 [Compound I-44, 1,3-Dihydro-isoindole-2-carboxylic acid 4-{6-[1-(2-dimethylamino-ethyl)-1H-pyrazol-4-yl]-7H-pyrrolo[2,3-d]pyrimidin-4-yl}-2-fluoro-benzylamide]
11 | 0.5 nM | 230 nM | CN(C)CCn1cc(-c2cc3c(-c4ccc(CNC(=O)c5ccc(C(C)(C)C)cc5)c(F)c4)ncnc3[nH]2)cn1 [Compound I-42, 4-tert-Butyl-N-(4-{6-[1-(2-dimethylamino-ethyl)-1H-pyrazol-4-yl]-7H-pyrrolo[2,3-d]pyrimidin-4-yl}-2-fluoro-benzyl)-benzamide]
12 | 0.3 nM | 655 nM | Cn1cc(-c2cc3c(-c4ccc(CNC(=O)c5cc6c(s5)CCCC6)c(F)c4)ncnc3[nH]2)cn1 [Compound I-37, 4,5,6,7-Tetrahydro-benzo[b]thiophene-2-carboxylic acid 2-fluoro-4-[6-(1-methyl-1H-pyrazol-4-yl)-7H-pyrrolo[2,3-d]pyrimidin-4-yl]-benzylamide]
13 | 0.2 nM | 28 nM | Cn1cc(-c2cc3c(-c4ccc(CNC(=O)c5cc(C(C)(C)C)no5)c(F)c4)ncnc3[nH]2)cn1 [Compound I-39, 3-tert-Butyl-isoxazole-5-carboxylic acid 2-fluoro-4-[6-(1-methyl-1H-pyrazol-4-yl)-7H-pyrrolo[2,3-d]pyrimidin-4-yl]-benzyl amide]
14 | 0.11 nM | 2 nM | Cn1cc(-c2cc3c(-c4ccc(CNC(=O)c5nc(C(C)(C)C)no5)c(F)c4)ncnc3[nH]2)cn1 [Compound I-49, 3-tert-Butyl-[1,2,4]oxadiazole-5-carboxylic acid 2-fluoro-4-[6-(1-methyl-1H-pyrazol-4-yl)-7H-pyrrolo[2,3-d]pyrimidin-4-yl]-benzylamide]
